According to US6518270B1, “Heterocyclic compounds for inhibition of gastric acid secretion, processes for their preparation and pharmaceutical compositions thereof” (AstraZeneca AB, priority 1997, dated 2003):

Target: T1, H+,K+-ATPase
T1 construct: from tissue
Experiment: Determination of H+,K+-ATPase activity
Format: biochemical
Details: membrane vesicles, 15 min at +37° C., pH 7.4, 10 mM KCl, 2 mM ATP; release of inorganic phosphate
Procedure: Determination of H^+,K^+-ATPase Activity
Membrane vesicles (2.5 to 5 μg) were incubated for 15 min at +37° C. in 18 mM Pipes/Tris buffer pH 7.4 containing 2 mM MgCl2, 10 mM KCl and 2 mM ATP. The ATPase activity was estimated as release of inorganic phosphate from ATP, as described by LeBel et al. (1978) Anal. Biochem. 85, 86-89.

T1 sequence (P20648 whole entry): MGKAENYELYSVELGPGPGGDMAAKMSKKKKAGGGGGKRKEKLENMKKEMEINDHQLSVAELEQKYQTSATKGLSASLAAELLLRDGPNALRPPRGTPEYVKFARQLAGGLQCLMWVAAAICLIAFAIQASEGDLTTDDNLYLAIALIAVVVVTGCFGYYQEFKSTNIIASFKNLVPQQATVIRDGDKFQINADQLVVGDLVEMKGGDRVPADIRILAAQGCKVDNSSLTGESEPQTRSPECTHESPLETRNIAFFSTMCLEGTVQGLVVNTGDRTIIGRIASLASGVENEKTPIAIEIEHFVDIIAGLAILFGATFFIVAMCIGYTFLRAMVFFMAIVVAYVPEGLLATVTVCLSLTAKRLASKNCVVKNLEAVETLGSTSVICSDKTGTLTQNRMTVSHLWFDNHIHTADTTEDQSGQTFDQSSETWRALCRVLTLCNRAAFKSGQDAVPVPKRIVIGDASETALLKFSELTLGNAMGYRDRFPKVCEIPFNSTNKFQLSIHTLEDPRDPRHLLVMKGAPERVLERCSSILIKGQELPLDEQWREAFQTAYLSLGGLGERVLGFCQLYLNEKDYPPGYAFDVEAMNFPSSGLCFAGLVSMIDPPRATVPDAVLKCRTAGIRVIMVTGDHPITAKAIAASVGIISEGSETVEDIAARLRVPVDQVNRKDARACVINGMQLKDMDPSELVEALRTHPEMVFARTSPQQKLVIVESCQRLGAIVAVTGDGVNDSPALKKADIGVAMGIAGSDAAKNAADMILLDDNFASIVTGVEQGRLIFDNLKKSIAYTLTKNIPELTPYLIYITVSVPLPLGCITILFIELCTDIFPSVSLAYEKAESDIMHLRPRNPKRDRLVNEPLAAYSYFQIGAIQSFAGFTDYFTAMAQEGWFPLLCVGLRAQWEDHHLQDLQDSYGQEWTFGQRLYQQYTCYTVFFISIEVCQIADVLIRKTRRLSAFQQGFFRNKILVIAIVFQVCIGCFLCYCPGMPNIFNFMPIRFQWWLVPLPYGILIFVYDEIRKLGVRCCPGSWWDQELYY
T1 sequence (P51164 whole entry partner): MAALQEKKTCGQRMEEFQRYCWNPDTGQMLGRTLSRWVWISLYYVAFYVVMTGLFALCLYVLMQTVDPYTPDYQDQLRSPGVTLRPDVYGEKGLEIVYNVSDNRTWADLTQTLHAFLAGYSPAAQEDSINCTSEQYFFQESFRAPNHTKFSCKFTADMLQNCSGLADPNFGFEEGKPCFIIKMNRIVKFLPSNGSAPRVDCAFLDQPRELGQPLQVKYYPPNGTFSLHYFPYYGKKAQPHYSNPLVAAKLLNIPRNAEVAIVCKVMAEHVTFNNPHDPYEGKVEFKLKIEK

IC50 | Structure (SMILES)
160 nM | Cc1cccc(C)c1CNc1nccn2c(C)c(C)nc12 [Example 1, 2,3-dimethyl-8-(2,6-dimethylbenzylamino)imidazo [1,2-a]pyrazine]
2780 nM | Cc1cccc(C)c1COc1nccn2c(C)c(C)nc12 [Example 2, 2,3-dimethyl-8-(2,6-dimethylbenzyloxy)imidazo[1,2-a]pyrazine]
